Experimental findings from patent US20190142954A1, “POLYMER-BONDED CA4 PHARMACEUTICAL COMPOUND AND PREPARATION METHOD THEREFOR” (priority 2016, published 2019) are described below.

The subject of test [1] is C26 cells. Put plainly: Tumor inhibition effect of polymer-bonded CA4 pharmaceutical compound. The test is classed as in vivo. To be noted: C26 tumor in Balb/C mice, 50.0 mg CA4/kg on day 1, 5 and 9, observation until day 17. On the procedure: The administration dosage was 50.0 mg CA4/kg body weight. Tumor was measured 3 times per week and body weights of mice were recorded, and observation was not stopped until day 17.

The test system of test [2] is C26 murine colon cancer cells. Put plainly: Therapeutic effect on tumor by single administration (pathological H&E analysis). It counts as in vivo. To be noted: C26 tumor in Balb/C mice, tail vein injection, 50 mg CA4/kg, 72 hours. As for the experimental part: 6 Balb/C mice (5-6 weeks old, female, body weight of approximately 20 g) were utilized, and C26 murine colon cancer cells were seeded at the right underarm at 2.0×10^6/mouse, respectively. […] The administration dosage was 50 mg CA4/kg body weight. The mice were sacrificed after 72 hours. Tumor was collected, and pathological H&E analysis was performed.

In turn, `COc1ccc(/C=C\c2cc(OC)c(OC)c(OC)c2)cc1OP(=O)([O-])[O-].[Na+].[Na+]` [CA4P, Combretastatin A4 phosphate disodium] came in with a tumor inhibition rate in test [1] of 24.0%. In addition, in test [2], the “tumor pathological analysis after single administration” value is “a wide range of recurrence occurred in the tumor”.
